Key:
OE21 cells [1] = experiment: Trypan Blue exclusion assay; format: cell-based, human; conditions: OE21, Ru1 21 μM
Description: Trypan Blue exclusion assay. OE21 cells were seeded in 6 well plates at 40,000 cells/well and allowed to adhere for 24 h.
Cell cultures were treated as stated, media containing detached/dead cells were removed and retained, and adherent collected by Trypsin and centrifugation. Adherent and detached cells for each sample were combined, concentrated via centrifugation and re-suspended in 0.5 ml PBS containing 0.04% Trypan Blue solution. Trypan Blue negative and Trypan Blue positive cells were counted by haemocytometer. A minimum of 200 cells were counted for each sample. […]
For the determination of mutation induction, from the untreated and each treated condition, 2x10^5 cells were plated in 10 x 100 mm dishes in selective media (regular media

[2] = system: V79 Chinese hamster cells; experiment: HPRT forward mutation assay; format: cell-based
Description: (§1) propidium iodide (PI) is standard to quantify DNA content using flow cytometry, bleed-through of the MLCT emission of […]
(§2) To remove these artefacts, a higher concentration of Ru1 (100 µM, 10 mins) was additionally applied post-incubation and fixation to treated and control samples, acting as a substitute DNA dye instead of PI. After staining, cells were centrifuged (1000 rpm, 5 mins) and re-suspended in PBS.
(§3) Samples were analysed using a Biosciences LSRII Flow Cytometer using the FL2 channel to collect (recognisable) cell-cycle […]
(§4) profiles. […] A minimum of
(§5) 10,000 cells were counted for each sample and data were processed using FloJo software.
Microscopy and immunofluorescence. Cells were seeded on ibidi 35 mm µ-dishes (Thistle Scientific), allowed to adhere for 24 h and treated as stated in the main text. Cell media was removed, cells washed with PBS and fixed with formaldehyde (4%, 10 mins). Cells were permeablised with Triton (0.5% in PBS, 5 mins) and washed with PBS. […]
(§6) emission was collected from 500-530 nm to prevent spectral overlap with Ru1 emission. γH2AX foci were counted using […]
(§7) The absorbance at 540 nm was quantified by plate reader (reference wavelength 650 nm). The metabolic activity of the cell population was determined as a percentage of a negative (solvent) control. […]
Cell cultures were treated as stated, media containing detached/dead cells were removed and retained, and adherent collected by Trypsin and centrifugation. […] Trypan Blue negative and Trypan Blue positive cells were counted by haemocytometer. A minimum of 200 cells were counted for each sample.
HPRT (hypoxanthine-guanine phosphoribosyl transferase) forward mutation assay. […] The cultures were washed with PBS, cells were detached by trypsin (0.05%) and cell number was determined. […] After 7 days' incubation, the resulting colonies were stained with methylene blue and those containing 100 or more cells were counted. Cloning efficiency was determined and is usually expressed in percent relative to the […]

OE33 cells = experiment: Clonogenic survival assay with IR, OE33; format: cell-based, human; conditions: Ru1 2 μM or Cis 500 nM for 24 h before IR
Description: Clonogenic survival assay. OE21, OE33 or FLO1 cells were treated with 2 µM Ru1 for 24 h before irradiation with 0-8 Gy using a 137Cs γ-irradiator (IBL637, CIS Bio Int.; dose rate = 0.809 Gy min−1). 1 h after irradiation, cells were detached using Trypsin and re-seeded in 6 well plates at a density of 300 – 20,000 cells/well in triplicate in an incrementally greater number of cells with increasing IR dose to ensure adequate colony formation. Cells were incubated for 7–14 days after re-seeding to allow colony formation before being fixed with 10% methanol, 10% acetic acid and stained with 0.4% methylene blue. OE33 cells required an additional formaldehyde fixation (4% in PBS, 5 mins) step before the addition of methylene blue solution or colony detachment occurred. Colonies containing 50 cells or greater were counted using a Gelcount instrument and accompanying software (Oxford Optronix). Plating efficiencies were determined for each treatment condition and normalised to an untreated control to provide the surviving fraction (S. F.). S.F. versus radiation dose curves were plotted in GraphPad Prism and fit using a second order polynomial function (R2 values > 0.99). Dose modifying factors (DMF) at a SF=0.1 were calculated using the equation: Dose modifying factor (DMF) = IR dose to give S.F. 0.1/IR dose plus compound to give S.F.0.1. […]

OE21 cells [3] = experiment: Micronuclei formation, OE21; format: cell-based, human; conditions: 20 μM Ru1, 24 h incubation
Description: as §1, §2, §3, §4, §5
Microscopy and immunofluorescence. […]
as §6, §7
Cell cultures were treated as stated, media containing detached/dead cells were removed and retained, and adherent collected by Trypsin and centrifugation. […] Trypan Blue negative and Trypan Blue positive cells were counted by haemocytometer. A minimum of 200 cells were counted for each sample. […]

[Ru(phen)2(tpphz)]^2+ [Ru1] was tested, and the “necrotic cell death (Trypan blue staining)” value (OE21 cells [1]) was about 20%, the “M.F. (mutation frequency)” value ([2]; 2 μM of each complex for 24 h) was 36.7 ± 7.3 6-TG resistant mutations per 1 × 10^5 viable cells and the “Rel. M.F. (ratio of induced to spontaneous mutations)” value ([2]; 2 μM of each complex for 24 h) was 5.8. The “mutation rate lower than for cisplatin” value ([2]; HPRT assay, V79, 2 μM, 24 h) was “two-fold”, the S.F. (OE33 cells; OE33, IR 0 Gy) was 0.956 and the S.F. (OE33 cells; OE33, IR 2 Gy) was 0.447. For the same substance, the S.F. (OE33 cells; OE33, IR 4 Gy) was 0.083, the S.F. (OE33 cells; OE33, IR 6 Gy) was 0.014 and the S.F. (OE33 cells; OE33, IR 8 Gy) was 0.003. The “Cells with micronuclei, Percentage” value (OE21 cells [3]; OE21 (n=1)) was 17.8% and the “Cells with micronuclei, Percentage” value (OE21 cells [3]; OE21 (n=2)) was 15.0%.
